{"source": "patent US20050014751A1", "about": "“Use of n-acyl homoserine lactones for the treatment of insulitis” (priority 2001, published 2005)", "key": {"[1]": {"system": "delayed type hypersensitivity response to SRBCs in Balb/c mice", "experiment": "Murine in vivo DTH response to SRBCs (footweight), oral OdDHL", "details": "Balb/c mice immunised with 5×10^6 SRBCs", "method": "Eight week old, female Balb/c mice were kept on a 12 hour light/dark cycle and fed food and water ad libitum. SRBCs in Alseviers solution (TCS Biologicals, SB069) were washed and centrifuged (800×g for 20 minutes at room temperature) three times with 0.9% NaCl in distilled water. Cells were counted using a haemocytometer. On day 0 animals were immunised intraperitoneally (IP) with 5×10^6 (low dose) or 5×10^8 (high dose) SRBCs in saline. On day 5, animals were challenged with 20 μl SRBCs at 5×10^9/ml in the left hind paw. The contralateral paw was injected with 20 μl saline alone. After 24 hours the animals were sacrificed with a rising concentration of CO2 and bled by cardiac puncture. The hind feet were severed at the ankle joint and weighed.\nAnimals were dosed po from day 0 to day 5 with OdDHL. OdDHL was suspended in 0.25% (wt/vol) cellosize (Boots Co. PLC, Nottingham UK) in distilled water containing 1.5% (vol/vol) Tween 80 (Registered Trade Mark, Sigma) for po dosing at 3, 10, 30 and 100 mg/kg. Animals received 0.1 ml po.\nThis manifests itself as an inflammatory response causing an increase in the size of the foot. Very little antibody is produced. OdDHL at 3, 10, 30 and 100 mg/kg caused a dose dependent increase in footweight of 37%, 60%, 100% and 93% respectively (see FIG. 5). Mice dosed with OdDHL had higher footweights when compared to vehicle dosed animals. The 30 and 100 mg/kg doses (** on graph) are significant as determined by Dunnett's multiple comparison's test after one-way analysis of variance (p<0.01). This assay is considered by the pharmaceutical industry to be […] dependent, indicating the effect of compound treatment on contra-regulating T-helper 1 lymphocytes."}, "murine splenocytes": {"system": "murine splenocytes", "experiment": "ConA mitogen-stimulated proliferation of murine splenocytes", "type": "cell-based, BALB/c mice", "details": "ConA 1 μg/ml, 100,000 spleen cells, 1 mM to 0.1 μM", "method": "The concanavalin A (ConA) cell proliferation assay was used to assess the effect of homoserine lactone (HSL) compounds on T-cell activation and proliferation. Proliferation was assessed by the incorporation of [^3H]-thymidine into DNA. Eight-week-old female BALB/c mice were obtained from Harlan (Bicester, Oxon, UK) and given food and water ad libitum. Splenocyte suspensions were prepared by removing the spleens and placing them into. RPMI 1640 medium. The spleens were forced through 70-μm-pore-size wire gauzes using the plunger from a 5-ml syringe to produce a single cell suspension. The cells were pelleted by centrifugation, and erythrocytes were lysed with 0.017M Tris, 0.144M ammonium chloride buffer, pH 7.2. Leucocytes were washed twice with RPMI 1640 medium with 2% (vol/vol) foetal calf serum (FCS) and resuspended in complete cell culture medium (CTCM) consisting of RPMI 1640 medium with 5% FCS, 2 mM L-glutamine, and 5×10^−5 M 2-mercaptoethanol. […] After the addition of 25 μl of MicroScint-O (Packard) to each well the filters were counted with the Packard TopCount scintillation counter. […]\n(§1) In the cell culture assays the number of cells used (mouse splenocytes and human PBMC) was initially optimised to 100,000 cells per well. The optimal dose of ConA of 1 μg/ml used in the cell proliferation assays was determined from ConA titration curves. […]"}, "human PBMC": {"system": "human PBMC", "experiment": "ConA mitogen-stimulated proliferation of human PBMC", "type": "cell-based", "details": "ConA 1 μg/ml, 100,000 PBMC", "method": "Blood specimens were obtained with consent from healthy human volunteers. Human peripheral blood mononuclear cells (PBMC) were isolated from heparinised whole blood by buoyant density centrifugation over Histopaque 1077 (Sigma, Poole, UK) at 600 g for 20 minutes. PBMC harvested from the ‘buffy’ layers were washed twice with RPMI 1640 medium and resuspended in CTCM. HSL compounds were tested at similar dilutions as for murine splenocytes in 200 μl of CTCM, containing 1 μg/ml of ConA and 100,000 PBMC. Human PBMC were incubated for 48 h at 37° C. in 5% CO2-air, followed by pulsing with 0.25 μCi [^3H]-thymidine (see above). After a further incubation of 24 h cells were harvested onto fibreglass filters and then counted in the presence of MicroScint-O with the Packard TopCount.\nConcanavalin induced cell proliferation of human peripheral blood mononuclear cells (PBMC) was tracked, as described in I above, by a measurement of counts per minute using the scintillation counter. The inhibitory effect of an HSL compound being tested on cell proliferation was indicated by a reduction in counts per minute. […]\nas §1"}, "diabetes in NOD mice": {"system": "diabetes in NOD mice", "experiment": "In vivo effects of CSA, anti-TNFα and OdDHL in the diabetes model", "details": "OdDHL 30 mg/kg, 3 times per week for 4 weeks", "method": "Dose regimes of Cyclosporin A, anti-TNFα antibody and OdDHL were compared in the diabetes model. NOD mice were dosed at 25 mg/kg on alternate days for 160 days following the methodology of Mori et al (Diabetologia (1986) 29: 244-247), the content of which is incorporated herein by reference, for the investigation of CSA, and Anti TNF at 12 mg per individual, 0.5 mg three times a week for 8 weeks in accordance with the method of Suk et al (J. Immunology (2001) 166: 4481-4489), the content of which is incorporated herein by reference, was used for TNFα. OdDHL was dosed at 30 mg/kg, 3 times per week for 4 weeks as above."}, "TNF-α production": {"system": "TNF-α production", "details": "Infection and Immunity, vol.66, no.1, January 1998; cited from earlier work"}}}
{"smiles": "CCCCCCCCCC(=O)CC(=O)N[C@H]1CCOC1=O", "note": "[OdDHL, N-(3-oxododecanoyl)-L-homoserine Lactone]", "values": [{"measurement": "increase in footweight", "setting": "[1]; 3 mg/kg po day 0 to day 5, vs vehicle", "value": 37, "unit": "%"}, {"measurement": "increase in footweight", "setting": "[1]; 10 mg/kg po day 0 to day 5, vs vehicle", "value": 60, "unit": "%"}, {"measurement": "increase in footweight", "setting": "[1]; 30 mg/kg po day 0 to day 5, vs vehicle, p<0.01", "value": 100, "unit": "%"}, {"measurement": "increase in footweight", "setting": "[1]; 100 mg/kg po day 0 to day 5, vs vehicle, p<0.01", "value": 93, "unit": "%"}, {"measurement": "inhibition of splenocyte proliferation ([3H]-thymidine cpm, FIG. 6)", "setting": "murine splenocytes", "value": "inhibits splenocyte proliferation"}, {"measurement": "inhibition of proliferation of human PBMC ([3H]-thymidine cpm, FIG. 7)", "setting": "human PBMC", "value": "inhibited proliferation"}, {"measurement": "in vivo action compared to reported data of Mori (CSA) and Suk (anti-TNF)", "setting": "diabetes in NOD mice", "value": "more effective in vivo action than in vitro"}, {"measurement": "inhibition of TNF-α production by LPS-stimulated adherent murine peritoneal macrophages", "setting": "TNF-α production", "value": "inhibiting"}]}
